# Where “and” joins values, the source holds several entries; their conditions need not be identical. Identical values can stand only once. Toxic doses and inconclusive results are not listed.
# Tested on: L1210 leukemia ip in BDF1 mice, survival T/C
# Test: NCI In Vivo Anticancer Drug Screen. Data for tumor model L1210 Leukemia (intraperitoneal) in B6D2F1 (BDF1) mice
# Details: higher = longer survival
# Method in brief: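 Tumor cells were implanted, animals were treated, and survival was followed. The result divides the treated measurement by the vehicle-control measurement.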
# [1] = endpoint: mean survival time, dose: 100.0 mg/kg/injection, schedule: Q01DX001 (ip), vehicle: carboxymethylcellulose (CMC)
# [2] = endpoint: mean survival time, dose: 200.0 mg/kg/injection, schedule: Q01DX001 (ip), vehicle: carboxymethylcellulose (CMC)
# [3] = endpoint: mean survival time, dose: 50.0 mg/kg/injection, schedule: Q01DX001 (ip), vehicle: carboxymethylcellulose (CMC)
# [4] = endpoint: mean survival time, dose: 400.0 mg/kg/injection, schedule: Q01DX001 (ip), vehicle: carboxymethylcellulose (CMC)
smiles,measurement,setting,value
CC1(C)CN1P(=S)(N1CC1(C)C)N1CC1(C)C (stereo not drawn),T/C,"endpoint: mean survival time, dose: 12.5 mg/kg/injection, schedule: Q01DX009 (ip), vehicle: saline",98 % of control
same,T/C,"endpoint: mean survival time, dose: 14.0 mg/kg/injection, schedule: Q01DX009 (ip), vehicle: saline",109 % of control
same,T/C,"endpoint: mean survival time, dose: 22.0 mg/kg/injection, schedule: Q01DX009 (ip), vehicle: saline",112 % of control
same,T/C,"endpoint: mean survival time, dose: 25.0 mg/kg/injection, schedule: Q01DX009 (ip), vehicle: saline",94 % of control
same,T/C,"endpoint: mean survival time, dose: 33.0 mg/kg/injection, schedule: Q01DX009 (ip), vehicle: saline",152 % of control
same,T/C,"endpoint: mean survival time, dose: 44.0 mg/kg/injection, schedule: Q01DX001 (ip), vehicle: other",121 % of control
same,T/C,[1],166 % of control and 169 % of control
same,T/C,"endpoint: mean survival time, dose: 100.0 mg/kg/injection, schedule: Q01DX001 (ip), vehicle: other",153 % of control
same,T/C,"endpoint: mean survival time, dose: 150.0 mg/kg/injection, schedule: Q01DX001 (ip), vehicle: other",158 % of control
same,T/C,[2],164 % of control
same,T/C,"endpoint: mean survival time, dose: 200.0 mg/kg/injection, schedule: Q01DX009 (ip), vehicle: saline",120 % of control
COC(=O)C[C@](O)(CCCC(C)(C)O)C(=O)O[C@@H]1C(OC)=C[C@]23CCCN2CCc2cc4c(cc2[C@H]13)OCO4,T/C,"endpoint: mean survival time, dose: 0.06 mg/kg/injection, schedule: Q01DX009 (ip), vehicle: water",110 % of control
same,T/C,"endpoint: mean survival time, dose: 0.13 mg/kg/injection, schedule: Q01DX009 (ip), vehicle: water",111 % of control
same,T/C,"endpoint: mean survival time, dose: 0.25 mg/kg/injection, schedule: Q01DX009 (ip), vehicle: acid diluted with saline",113 % of control
same,T/C,"endpoint: mean survival time, dose: 0.25 mg/kg/injection, schedule: Q01DX009 (ip), vehicle: water",113 % of control and 123 % of control (2×)
same,T/C,"endpoint: mean survival time, dose: 0.25 mg/kg/injection, schedule: Q03HX008 (ip), vehicle: acid diluted with saline",114 % of control
same,T/C,"endpoint: mean survival time, dose: 0.25 mg/kg/injection, schedule: Q03HX016 (ip), vehicle: acid diluted with saline",108 % of control
same,T/C,"endpoint: mean survival time, dose: 0.5 mg/kg/injection, schedule: Q01DX006 (iv), vehicle: acid diluted with saline",111 % of control
same,T/C,"endpoint: mean survival time, dose: 0.5 mg/kg/injection, schedule: Q01DX009 (ip), vehicle: acid diluted with saline",120 % of control
same,T/C,"endpoint: mean survival time, dose: 0.5 mg/kg/injection, schedule: Q01DX009 (oral), vehicle: acid diluted with saline",105 % of control
same,T/C,"endpoint: mean survival time, dose: 0.5 mg/kg/injection, schedule: Q01DX009 (oral), vehicle: saline",103 % of control
same,T/C,"endpoint: mean survival time, dose: 0.5 mg/kg/injection, schedule: Q01DX009 (sc), vehicle: acid diluted with saline",100 % of control
same,T/C,"endpoint: mean survival time, dose: 0.5 mg/kg/injection, schedule: Q01DX009 (sc), vehicle: saline",112 % of control
same,T/C,"endpoint: mean survival time, dose: 0.5 mg/kg/injection, schedule: Q03HX008 (ip), vehicle: acid diluted with saline",120 % of control
same,T/C,"endpoint: mean survival time, dose: 0.5 mg/kg/injection, schedule: Q03HX016 (ip), vehicle: acid diluted with saline",117 % of control
same,T/C,"endpoint: mean survival time, dose: 1.0 mg/kg/injection, schedule: Q01DX006 (iv), vehicle: acid diluted with saline",116 % of control
same,T/C,"endpoint: mean survival time, dose: 1.0 mg/kg/injection, schedule: Q01DX009 (oral), vehicle: acid diluted with saline",107 % of control
same,T/C,"endpoint: mean survival time, dose: 1.0 mg/kg/injection, schedule: Q01DX009 (oral), vehicle: saline",108 % of control
same,T/C,"endpoint: mean survival time, dose: 1.0 mg/kg/injection, schedule: Q01DX009 (sc), vehicle: acid diluted with saline",117 % of control
same,T/C,"endpoint: mean survival time, dose: 1.0 mg/kg/injection, schedule: Q01DX009 (sc), vehicle: saline",124 % of control
same,T/C,"endpoint: mean survival time, dose: 1.0 mg/kg/injection, schedule: Q03HX008 (ip), vehicle: acid diluted with saline",120 % of control
same,T/C,"endpoint: mean survival time, dose: 1.0 mg/kg/injection, schedule: Q03HX016 (ip), vehicle: acid diluted with saline",119 % of control
same,T/C,"endpoint: mean survival time, dose: 1.0 mg/kg/injection, schedule: Q04DX003 (ip), vehicle: acid diluted with saline",110 % of control
same,T/C,"endpoint: mean survival time, dose: 2.0 mg/kg/injection, schedule: Q01DX001 (ip), vehicle: acid diluted with saline",111 % of control
same,T/C,"endpoint: mean survival time, dose: 2.0 mg/kg/injection, schedule: Q01DX001 (iv), vehicle: acid diluted with saline",113 % of control
same,T/C,"endpoint: mean survival time, dose: 2.0 mg/kg/injection, schedule: Q01DX001 (oral), vehicle: acid diluted with saline",105 % of control
same,T/C,"endpoint: mean survival time, dose: 2.0 mg/kg/injection, schedule: Q01DX001 (sc), vehicle: acid diluted with saline",109 % of control
same,T/C,"endpoint: mean survival time, dose: 2.0 mg/kg/injection, schedule: Q01DX006 (iv), vehicle: acid diluted with saline",116 % of control
same,T/C,"endpoint: mean survival time, dose: 2.0 mg/kg/injection, schedule: Q01DX009 (ip), vehicle: acid diluted with saline",150 % of control
same,T/C,"endpoint: mean survival time, dose: 2.0 mg/kg/injection, schedule: Q01DX009 (oral), vehicle: acid diluted with saline",117 % of control
same,T/C,"endpoint: mean survival time, dose: 2.0 mg/kg/injection, schedule: Q01DX009 (oral), vehicle: saline",120 % of control
same,T/C,"endpoint: mean survival time, dose: 2.0 mg/kg/injection, schedule: Q01DX009 (sc), vehicle: saline",116 % of control
same,T/C,"endpoint: mean survival time, dose: 2.0 mg/kg/injection, schedule: Q08DX002 (ip), vehicle: acid diluted with saline",107 % of control
same,T/C,"endpoint: mean survival time, dose: 4.0 mg/kg/injection, schedule: Q01DX001 (ip), vehicle: acid diluted with saline",114 % of control
same,T/C,"endpoint: mean survival time, dose: 4.0 mg/kg/injection, schedule: Q01DX001 (iv), vehicle: acid diluted with saline",109 % of control
same,T/C,"endpoint: mean survival time, dose: 4.0 mg/kg/injection, schedule: Q01DX001 (oral), vehicle: acid diluted with saline",109 % of control
same,T/C,"endpoint: mean survival time, dose: 4.0 mg/kg/injection, schedule: Q01DX001 (sc), vehicle: acid diluted with saline",109 % of control
same,T/C,"endpoint: mean survival time, dose: 4.0 mg/kg/injection, schedule: Q01DX006 (iv), vehicle: acid diluted with saline",122 % of control
same,T/C,"endpoint: mean survival time, dose: 4.0 mg/kg/injection, schedule: Q01DX009 (ip), vehicle: acid diluted with saline",86 % of control
same,T/C,"endpoint: mean survival time, dose: 4.0 mg/kg/injection, schedule: Q01DX009 (oral), vehicle: acid diluted with saline",123 % of control
same,T/C,"endpoint: mean survival time, dose: 4.0 mg/kg/injection, schedule: Q01DX009 (sc), vehicle: acid diluted with saline",111 % of control
same,T/C,"endpoint: mean survival time, dose: 4.0 mg/kg/injection, schedule: Q04DX003 (ip), vehicle: acid diluted with saline",119 % of control
same,T/C,"endpoint: mean survival time, dose: 4.0 mg/kg/injection, schedule: Q08DX002 (ip), vehicle: acid diluted with saline",109 % of control
same,T/C,"endpoint: mean survival time, dose: 8.0 mg/kg/injection, schedule: Q01DX001 (iv), vehicle: acid diluted with saline",114 % of control
same,T/C,"endpoint: mean survival time, dose: 8.0 mg/kg/injection, schedule: Q04DX003 (ip), vehicle: acid diluted with saline",102 % of control
same,T/C,"endpoint: mean survival time, dose: 125.0 micrograms/kg/injection, schedule: Q03HX024 (ip), vehicle: acid diluted with saline",119 % of control
same,T/C,"endpoint: mean survival time, dose: 1000.0 micrograms/kg/injection, schedule: Q03HX024 (ip), vehicle: acid diluted with saline",89 % of control
same,T/C,"endpoint: median survival time, dose: 1.0 mg/kg/injection, schedule: Q04DX003 (ip), vehicle: saline",110 % of control
same,T/C,"endpoint: median survival time, dose: 2.0 mg/kg/injection, schedule: Q04DX003 (ip), vehicle: saline",113 % of control
same,T/C,"endpoint: median survival time, dose: 4.0 mg/kg/injection, schedule: Q04DX003 (ip), vehicle: saline",100 % of control
OC(c1ccc(C2CC2)cc1)(c1ccc(C2CC2)cc1)c1ccc(C2CC2)cc1,T/C,"endpoint: mean survival time, dose: 100.0 mg/kg/injection, schedule: Q04DX003 (ip), vehicle: saline with Tween-80",104 % of control
same,T/C,"endpoint: mean survival time, dose: 200.0 mg/kg/injection, schedule: Q04DX003 (ip), vehicle: saline with Tween-80",102 % of control
same,T/C,"endpoint: mean survival time, dose: 400.0 mg/kg/injection, schedule: Q04DX003 (ip), vehicle: saline with Tween-80",91 % of control
Cc1ccc(S(=O)(=O)N(C)c2cc(Cl)c(C#N)cc2Cl)cc1,T/C,"endpoint: mean survival time, dose: 100.0 mg/kg/injection, schedule: Q04DX003 (ip), vehicle: Klucel (hydroxypropylcellulose) (HPC)",97 % of control
same,T/C,"endpoint: mean survival time, dose: 200.0 mg/kg/injection, schedule: Q04DX003 (ip), vehicle: Klucel (hydroxypropylcellulose) (HPC)",97 % of control
same,T/C,"endpoint: mean survival time, dose: 400.0 mg/kg/injection, schedule: Q04DX003 (ip), vehicle: Klucel (hydroxypropylcellulose) (HPC)",100 % of control
Cn1c[n+](C2OC(CO)C(O)C2O)c2nc(N)[nH]c(=O)c21 (stereo not drawn),T/C,[3],92 % of control
same,T/C,[1],92 % of control
same,T/C,[2],97 % of control
same,T/C,[4],93 % of control
O=C(NCCCNC(=O)Nc1ccc(C2=NCCCN2)cc1)Nc1ccc(C2=NCCCN2)cc1,T/C,"endpoint: mean survival time, dose: 10.0 mg/kg/injection, schedule: Q01DX015 (ip), vehicle: methylcellulose (MC)",103 % of control
same,T/C,"endpoint: mean survival time, dose: 20.0 mg/kg/injection, schedule: Q01DX015 (ip), vehicle: methylcellulose (MC)",103 % of control
O=C1c2cc([N+](=O)[O-])ccc2-c2cc(Cl)c([N+](=O)[O-])cc21,T/C,[3],102 % of control
same,T/C,[1],91 % of control
same,T/C,[2],91 % of control
same,T/C,[4],93 % of control
CCOC(=O)c1ncn(C2OC(CO)C(O)C2O)c1N (stereo not drawn),T/C,"endpoint: mean survival time, dose: 12.5 mg/kg/injection, schedule: Q01DX005 (ip), vehicle: saline with Tween-80",90 % of control
same,T/C,"endpoint: mean survival time, dose: 25.0 mg/kg/injection, schedule: Q01DX005 (ip), vehicle: saline with Tween-80",100 % of control
same,T/C,"endpoint: mean survival time, dose: 50.0 mg/kg/injection, schedule: Q01DX005 (ip), vehicle: saline with Tween-80",90 % of control
same,T/C,"endpoint: mean survival time, dose: 100.0 mg/kg/injection, schedule: Q01DX005 (ip), vehicle: saline with Tween-80",92 % of control
same,T/C,"endpoint: mean survival time, dose: 200.0 mg/kg/injection, schedule: Q01DX005 (ip), vehicle: saline with Tween-80",93 % of control
CCCOP(=O)(N1CC1(C)C)N1CC1(C)C (stereo not drawn),T/C,"endpoint: mean survival time, dose: 100.0 mg/kg/injection, schedule: Q04DX002 (ip), vehicle: saline",201 % of control
same,T/C,"endpoint: mean survival time, dose: 200.0 mg/kg/injection, schedule: Q04DX002 (ip), vehicle: saline",155 % of control

# From PubChem BioAssay AID248 (DTP/NCI, 2004)
